Data: PubChem BioAssay (NCI)
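Five concentrations, 48 hours, 96-well plates. TGI marks complete inhibition of growth.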

Legend:
Experiment in all cases: NCI tumour cell line growth inhibition, 48 h
EKVX NSCLC = tested on: EKVX NSCLC
SNB-19 CNS = tested on: SNB-19 CNS
OVCAR-5 ovarian = tested on: OVCAR-5 ovarian
SR leukemia = tested on: SR leukemia
KM12 colon = tested on: KM12 colon
ACHN renal = tested on: ACHN renal
LXFL 529 NSCLC = tested on: LXFL 529 NSCLC
A498 renal = tested on: A498 renal
KM20L2 colon = tested on: KM20L2 colon
SK-MEL-28 melanoma = tested on: SK-MEL-28 melanoma
RPMI-8226 leukemia = tested on: RPMI-8226 leukemia
DMS 273 small cell lung = tested on: DMS 273 small cell lung
SNB-78 CNS = tested on: SNB-78 CNS
SNB-75 CNS = tested on: SNB-75 CNS
M19-MEL melanoma = tested on: M19-MEL melanoma
COLO 205 colon = tested on: COLO 205 colon
NCI-H460 lung = tested on: NCI-H460 lung
SF-539 CNS = tested on: SF-539 CNS
A549 NSCLC = tested on: A549 NSCLC
CAKI-1 renal = tested on: CAKI-1 renal
M14 melanoma = tested on: M14 melanoma
HCC-2998 colon = tested on: HCC-2998 colon
HT29 colon = tested on: HT29 colon
DLD-1 colon = tested on: DLD-1 colon
TK-10 renal = tested on: TK-10 renal
SW-620 colon = tested on: SW-620 colon
HL-60(TB) leukemia = tested on: HL-60(TB) leukemia
RXF 393 renal = tested on: RXF 393 renal
UACC-62 melanoma = tested on: UACC-62 melanoma
SN12C renal = tested on: SN12C renal
HOP-18 NSCLC = tested on: HOP-18 NSCLC
K-562 leukemia = tested on: K-562 leukemia
MOLT-4 leukemia = tested on: MOLT-4 leukemia
UO-31 renal = tested on: UO-31 renal
HOP-92 NSCLC = tested on: HOP-92 NSCLC
HOP-62 NSCLC = tested on: HOP-62 NSCLC
OVCAR-4 ovarian = tested on: OVCAR-4 ovarian
SF-295 CNS = tested on: SF-295 CNS
XF 498 CNS = tested on: XF 498 CNS
SK-MEL-2 melanoma = tested on: SK-MEL-2 melanoma
OVCAR-8 ovarian = tested on: OVCAR-8 ovarian
NCI-H23 lung = tested on: NCI-H23 lung
CCRF-CEM leukemia = tested on: CCRF-CEM leukemia
OVCAR-3 ovarian = tested on: OVCAR-3 ovarian
SK-OV-3 ovarian = tested on: SK-OV-3 ovarian
DMS 114 small cell lung = tested on: DMS 114 small cell lung
HCT-15 colon = tested on: HCT-15 colon
SK-MEL-5 melanoma = tested on: SK-MEL-5 melanoma
NCI-H226 lung = tested on: NCI-H226 lung
NCI-H522 lung = tested on: NCI-H522 lung
786-0 renal = tested on: 786-0 renal
HCT-116 colon = tested on: HCT-116 colon
MALME-3M melanoma = tested on: MALME-3M melanoma
UACC-257 melanoma = tested on: UACC-257 melanoma
SF-268 CNS = tested on: SF-268 CNS
LOX IMVI melanoma = tested on: LOX IMVI melanoma
U251 CNS = tested on: U251 CNS
RXF-631 renal = tested on: RXF-631 renal
IGROV1 ovarian = tested on: IGROV1 ovarian
SN12K1 renal = tested on: SN12K1 renal
MCF7 breast = tested on: MCF7 breast
P388 leukemia = tested on: P388 leukemia
NCI/ADR-RES ovarian = tested on: NCI/ADR-RES ovarian

CC(=O)Nc1ccc(C2C(C(=O)Nc3ccccc3C)=C(C)NC(C)=C2C(=O)Nc2ccccc2C)cc1
TGI (EKVX NSCLC): > 100 µM
TGI (SNB-19 CNS): > 100 µM
TGI (OVCAR-5 ovarian): > 100 µM
TGI (SR leukemia): > 100 µM
TGI (KM12 colon): > 31.6 µM
TGI (ACHN renal): > 100 µM
TGI (LXFL 529 NSCLC): > 100 µM
TGI (A498 renal): > 100 µM
TGI (KM20L2 colon): > 100 µM
TGI (SK-MEL-28 melanoma): > 100 µM
TGI (RPMI-8226 leukemia): > 100 µM
TGI (DMS 273 small cell lung): > 100 µM
TGI (SNB-78 CNS): > 100 µM
TGI (SNB-75 CNS): > 100 µM
TGI (M19-MEL melanoma): > 100 µM
TGI (COLO 205 colon): > 100 µM
TGI (NCI-H460 lung): > 100 µM
TGI (SF-539 CNS): > 100 µM
TGI (A549 NSCLC): > 100 µM
TGI (CAKI-1 renal): > 100 µM
TGI (M14 melanoma): > 100 µM
TGI (HCC-2998 colon): > 100 µM
TGI (HT29 colon): > 100 µM
TGI (DLD-1 colon): > 100 µM
TGI (TK-10 renal): > 100 µM
TGI (SW-620 colon): > 100 µM
TGI (HL-60(TB) leukemia): > 100 µM
TGI (RXF 393 renal): > 100 µM
TGI (UACC-62 melanoma): > 100 µM
TGI (SN12C renal): > 100 µM
TGI (HOP-18 NSCLC): > 100 µM
TGI (K-562 leukemia): > 100 µM
TGI (MOLT-4 leukemia): > 26.2 µM
TGI (UO-31 renal): > 100 µM
TGI (HOP-92 NSCLC): > 100 µM
TGI (HOP-62 NSCLC): > 100 µM
TGI (OVCAR-4 ovarian): > 100 µM
TGI (SF-295 CNS): > 100 µM
TGI (XF 498 CNS): > 100 µM
TGI (SK-MEL-2 melanoma): > 100 µM
TGI (OVCAR-8 ovarian): > 100 µM
TGI (NCI-H23 lung): > 100 µM
TGI (CCRF-CEM leukemia): > 100 µM
TGI (OVCAR-3 ovarian): > 100 µM
TGI (SK-OV-3 ovarian): > 100 µM
TGI (DMS 114 small cell lung): > 100 µM
TGI (HCT-15 colon): > 100 µM
TGI (SK-MEL-5 melanoma): > 100 µM
TGI (NCI-H226 lung): > 100 µM
TGI (NCI-H522 lung): > 100 µM
TGI (786-0 renal): > 100 µM
TGI (HCT-116 colon): > 100 µM
TGI (MALME-3M melanoma): > 100 µM
TGI (UACC-257 melanoma): > 100 µM
TGI (SF-268 CNS): > 100 µM
TGI (LOX IMVI melanoma): > 100 µM
TGI (U251 CNS): > 100 µM
TGI (RXF-631 renal): > 100 µM
TGI (IGROV1 ovarian): > 100 µM

COc1cc(-c2ccc(N=Nc3c(S(=O)(=O)O)cc4cc(S(=O)(=O)O)cc(N)c4c3O)c(OC)c2)ccc1N=Nc1c(S(=O)(=O)O)cc2cc(S(=O)(=O)O)cc(N)c2c1O
TGI (EKVX NSCLC): > 100 µM
TGI (SN12K1 renal): > 100 µM
TGI (SNB-19 CNS): > 100 µM
TGI (OVCAR-5 ovarian): > 100 µM
TGI (KM12 colon): > 100 µM
TGI (A498 renal): > 100 µM
TGI (KM20L2 colon): > 100 µM
TGI (SK-MEL-28 melanoma): > 100 µM
TGI (RPMI-8226 leukemia): > 100 µM
TGI (DMS 273 small cell lung): > 100 µM
TGI (SNB-78 CNS): > 100 µM
TGI (SNB-75 CNS): > 100 µM
TGI (M19-MEL melanoma): > 100 µM
TGI (COLO 205 colon): > 100 µM
TGI (NCI-H460 lung): > 100 µM
TGI (SF-539 CNS): > 100 µM
TGI (A549 NSCLC): > 100 µM
TGI (HCC-2998 colon): > 100 µM
TGI (HT29 colon): > 100 µM
TGI (DLD-1 colon): > 100 µM
TGI (MCF7 breast): > 100 µM
TGI (SW-620 colon): > 100 µM
TGI (HL-60(TB) leukemia): > 100 µM
TGI (RXF 393 renal): > 100 µM
TGI (SN12C renal): > 100 µM
TGI (HOP-18 NSCLC): > 100 µM
TGI (K-562 leukemia): > 100 µM
TGI (MOLT-4 leukemia): > 100 µM
TGI (UO-31 renal): > 100 µM
TGI (HOP-92 NSCLC): > 77.4 µM
TGI (HOP-62 NSCLC): > 100 µM
TGI (OVCAR-4 ovarian): > 100 µM
TGI (SF-295 CNS): > 100 µM
TGI (XF 498 CNS): > 67.9 µM
TGI (SK-MEL-2 melanoma): > 100 µM
TGI (OVCAR-8 ovarian): > 100 µM
TGI (P388 leukemia): > 100 µM
TGI (NCI-H23 lung): > 100 µM
TGI (CCRF-CEM leukemia): > 100 µM
TGI (OVCAR-3 ovarian): > 100 µM
TGI (SK-OV-3 ovarian): > 100 µM
TGI (DMS 114 small cell lung): > 100 µM
TGI (NCI/ADR-RES ovarian): > 100 µM
TGI (HCT-15 colon): > 100 µM
TGI (SK-MEL-5 melanoma): > 100 µM
TGI (NCI-H226 lung): > 100 µM
TGI (NCI-H522 lung): > 100 µM
TGI (HCT-116 colon): > 100 µM
TGI (MALME-3M melanoma): > 100 µM
TGI (UACC-257 melanoma): > 100 µM
TGI (SF-268 CNS): > 100 µM
TGI (LOX IMVI melanoma): > 100 µM
TGI (U251 CNS): > 100 µM
TGI (IGROV1 ovarian): > 100 µM
